From PMC12192727, “Strategies to Develop Na,K-ATPase-α4 Inhibitors as Male Contraceptives” (International Journal of Molecular Sciences, 2025)
“Also recorded” adds a separate entry of the source. Where two headings read alike, the source gives them in different places.

How the values were obtained:
mouse sperm [1] = assay: Mouse sperm total motility in vitro (CASA); format: cell-based; settings: for Emax: Mus musculus, Sperm, 1 h, nanomolar range concentration, read-out: Maximal Motility Inhibition (%)
Experimental: To characterize the SAR of these compounds, we first evaluated their effects on total sperm motility in vitro. Sperm isolated from the cauda epididymis of mice were incubated with the test compounds in modified Whitten’s medium under non-capacitating conditions. Motility was assessed using a computer-assisted sperm analysis (CASA) system.
All experimental protocols involving animals used in this work were approved by the University of Kansas Medical Center Institutional Animal Care and Use Committee (ACUP number: 22-09-26, 10/2022). C57BL/6 mice were purchased from Harlan (Indianapolis, IN, USA). Spermatozoa were isolated from the cauda of adult mouse epididymis in Whitten’s medium, containing 100 mM NaCl, 4.7 mM KCl, 1.2 mM KH2PO4, 1.2 mM MgSO4, 5.5 mM glucose, 0.8 mM pyruvic acid, 4.8 mM lactic acid, and 40 mM Hepes, as previously described.
Spermatozoa (1 × 10^6 cells) were incubated at 37 °C in 100 μL of Whitten’s medium, with the addition of 1.7 mM CaCl2 and in the absence and presence of different amounts of the tested compounds for 60 min. Then, cells were labeled with the fluorescent nucleic acid stain SYTO 21, which allows for the tracking of the movement of the cell head. After 1 min of incubation with the dye, 5.5 μL aliquots from each sample were taken and placed into a glass cell chamber (Leja Products B.V., Nieuw-Vennep, The Netherlands). Sperm were maintained at 37 °C on a heated platform and viewed with an Olympus BX51 microscope (Olympus, Center Valley, PA, USA) through a 20× phase objective. Images of the moving sperm were captured using a CCD camera. Samples were analyzed by CASA using the Minitube SpermVision Digital Semen Evaluation system (version 3.5; Penetrating Innovations, Verona, WI, USA). An average of 200 cells/field were captured, at a rate of 30 frames per field, and a total of 10 fields in each sample were analyzed. Total sperm motility was obtained from sperm maintained in a non-capacitating medium, while for assessing the hyperactive pattern of motility, typical of sperm capacitation, cells were incubated in Whitten’s medium with the addition of 1.7 mM CaCl2, 25 mM sodium bicarbonate, and 0.5% bovine serum albumin.
(§1) Figure 2 Effect of simplified steroidal analogs on mouse sperm total motility. Sperm was isolated from the cauda epididymis and treated in the absence and presence of the indicated concentrations of each compound. After one hour of incubation, sperm motility was determined by CASA. Values are expressed as the mean ± SEM of three determinations.
as §1, with “4” for “2”, “non-steroidal small compounds” for “simplified steroidal analogs”, “1 h” for “one hour”

NKAα4 = target: T1, NKAα4 (Rattus norvegicus, UniProt Q64541); assay: Na,K-ATPase activity assay, α4β1 expressed in Sf9 insect cells; format: biochemical
T1 construct: made in house; host or cells: Sf9 insect cells (baculovirus infection), cell homogenates
Experimental: The NKA α1 and α4 isoforms were expressed in Sf9 insect cells as previously described. Briefly, cells were cultured in suspension at 27 °C in Grace’s medium (JRH Biosciences, Lenexa, KS, USA) with 3.3 g/L of lactalbumin hydrolysate and 3.3 g/L of yeastolate and supplemented with 10% (v/v) fetal bovine serum, 100 units/mL of penicillin, 100 μg/mL of streptomycin, and 0.25 μg/mL of fungizone. For infections, cells were placed on 150 mm Petri dishes and infected with baculoviruses coding for the NKA α1β1 and α4β1 isozymes. Three days after infection, cells were scraped from the culture plates, centrifuged at 1500× g for 10 min, and washed twice in 10 mM imidazole hydrochloride (pH 7.5) and 1 mM EGTA (suspension buffer). Cells were then placed in a suspension buffer plus the addition of 0.32 M sucrose and stored at −20 °C or directly used for assays.
The Na,K-ATPase activity of insect cell homogenates was determined by measuring the initial rate of release of ^32Pi from γ[^32P]-ATP as described. The incubation medium (0.25 mL final volume) contained 120 mM NaCl, 30 mM KCl, 3 mM MgCl2, 0.2 mM EGTA, 30 mM Tris-HCl (pH 7.4), and different concentrations of the corresponding compounds. The assay was started by the addition of ATP with 0.2 μCi γ[^32P]-ATP (2 mM final concentration). After 30 min of incubation at 37 °C, the reaction was stopped with trichloroacetic acid, and 5% ammonium molybdate in 4 N H2SO4 was used to complex the ^32Pi released in the Na,K-ATPase reaction. The phosphomolybdate was extracted with isobutanol as described, and 170 μL of the organic phase was taken and subjected to liquid scintillation counting. Enzymatic activity was determined as the difference in ATP hydrolysis in the absence and presence of 1 mM ouabain.
Figure 6 Selectivity of 13 and 45 on NKAα4 over the NKAα1 isoform. […] The hydrolysis of ATP in the presence of saturating concentrations of Na^+, K^+, and Mg^2+ was measured using γ[^32P]-ATP. The curves represent the best fit of the experimental data to a single population of binding sites. Each value is the mean ± SEM of three independent experiments.

mouse epididymal sperm = assay: Reversibility of effect on sperm motility after washing; format: cell-based; settings: after washing the cells with fresh medium
Experimental: An important goal for the development of agents to be used for contraception is to assess the reversibility of their effect on sperm. To achieve this, we treated mouse sperm in the absence and presence of either 13 or 45 and measured epididymal sperm motility before and after washing the cells with fresh medium.
Mouse epididymal sperm were treated in the absence or presence of compounds 13 or 45 for one hour in Whitten’s medium. After an initial measurement of sperm motility using CASA, the sperm was washed by centrifugating the sample at 300× g for 3 min and resuspension in fresh Whitten’s medium. Then, sperm motility was determined again using CASA for the different times and for up to 180 min.
Figure 7 Reversibility of the effect of compounds 13 and 45. Mouse epididymal sperm were treated in the absence (untreated control) or presence of 13 (A) or 45 (B) for one hour. Then, the sperm was washed, and motility was measured before and after washing the cells using CASA. Sperm movement was followed during the indicated times. Values are expressed as the mean ± SEM of three determinations. Samples treated with 13 and 45 were statistically different from the untreated controls, with p < 0.05.

mouse sperm [2] = assay: Sperm viability (Live/Dead assay); format: cell-based; settings: 10 µM, one hour
Experimental: To assess whether 13 and 45 affected sperm viability, we treated mouse sperm with the compounds for one hour at 10 µM and determined the number of live and dead cells in the sample.
Figure 5 Cell viability after treatment with compounds 13 and 45. Mouse caudal epididymal sperm was subjected to a medium not supporting capacitation to 10 µM of 13 and 45. After one hour, sperm was subjected to the Live/Dead assay as per the manufacturer’s recommendations. Cells were counted as viable/non-viable and expressed as the mean ± SEM of three determinations.

[3] = simplified steroid analogs, mouse sperm motility
[4] = α4β1 in Sf9 insect cells, ± SEM of three experiments

T1 sequence (Q64541 whole entry, other chains not shown): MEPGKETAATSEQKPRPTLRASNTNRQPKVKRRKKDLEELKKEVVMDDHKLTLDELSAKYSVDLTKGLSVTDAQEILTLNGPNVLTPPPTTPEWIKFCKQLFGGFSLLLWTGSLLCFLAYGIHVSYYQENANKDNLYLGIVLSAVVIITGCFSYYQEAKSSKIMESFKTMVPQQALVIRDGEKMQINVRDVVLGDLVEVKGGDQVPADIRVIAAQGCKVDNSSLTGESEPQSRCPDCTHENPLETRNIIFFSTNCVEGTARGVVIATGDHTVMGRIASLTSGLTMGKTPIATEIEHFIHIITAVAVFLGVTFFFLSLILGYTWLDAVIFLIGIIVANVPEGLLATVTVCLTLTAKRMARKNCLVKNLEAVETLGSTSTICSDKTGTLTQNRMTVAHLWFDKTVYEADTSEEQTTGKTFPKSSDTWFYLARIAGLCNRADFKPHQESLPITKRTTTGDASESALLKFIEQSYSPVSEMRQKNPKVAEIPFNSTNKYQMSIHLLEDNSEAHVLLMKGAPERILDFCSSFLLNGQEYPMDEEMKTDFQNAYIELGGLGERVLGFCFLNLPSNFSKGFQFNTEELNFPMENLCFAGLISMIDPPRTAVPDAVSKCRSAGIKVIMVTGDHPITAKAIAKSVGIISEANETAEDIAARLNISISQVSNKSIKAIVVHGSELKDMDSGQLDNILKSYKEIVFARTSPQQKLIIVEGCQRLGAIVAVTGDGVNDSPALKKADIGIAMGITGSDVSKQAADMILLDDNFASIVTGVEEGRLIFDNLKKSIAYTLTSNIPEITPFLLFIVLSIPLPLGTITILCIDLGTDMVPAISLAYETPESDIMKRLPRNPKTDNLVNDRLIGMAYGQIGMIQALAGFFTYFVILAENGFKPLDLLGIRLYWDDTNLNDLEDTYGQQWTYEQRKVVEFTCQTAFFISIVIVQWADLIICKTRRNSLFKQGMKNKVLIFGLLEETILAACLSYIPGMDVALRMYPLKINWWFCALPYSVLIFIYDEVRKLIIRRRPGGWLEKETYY

Question: How did the Emax (mouse sperm [1]; simplified steroid analogs, mouse sperm total motility) turn out when `C[C@]12CC[C@H]3[C@@H](CC=C4C[C@@H](O)CC[C@@]43C)[C@@H]1CC[C@@H]2c1cn(Cc2ccccc2)nn1` [Compound 13, (3S,8S,9S,10R,13S,14S,17S)-17-(1-Benzyl-1H-1,2,3-triazol-4-yl)-10,13-dimethyl-2,3,4,7,8,9,10,11,12,13,14,15,16,17-tetradecahydro-1H-cyclopenta[a]phenanthren-3-ol] was run?
Answer: 41%

Question: What about the “Shape of inhibitory dose response on sperm motility” value (mouse sperm [1]; mouse sperm total motility) of the same molecule?
Answer: monotonic inhibitory response

Question: And the IC50 (mouse sperm [1]; [3])?
Answer: 0.024 nM

Question: What about the “IC50 (pM)” value (mouse sperm [1]; [3]) of the same molecule?
Answer: sub-nanomolar range

Question: What about the IC50 (NKAα4) of the same molecule?
Answer: 0.1 nM

Question: What about the “NKA Isoform Specificity (IC50 M) NKAα4” value (NKAα4; [4]) of the same molecule?
Answer: nanomolar range

Question: And the “Reversibility of effect on sperm motility” value (mouse epididymal sperm)?
Answer: maintained over time; also recorded: not reversible

Question: And the Sperm viability (mouse sperm [2])?
Answer: the same as that of the untreated controls

Question: For `CC12CCC(=O)C=C1CCCC2n1cc(-c2ccccc2)nn1` (centres unmarked) [Compound 45, 4a-Methyl-5-(4-phenyl-1H-1,2,3-triazol-1-yl)-4,4a,5,6,7,8-hexahydronaphthalen-2(3H)-one], which Emax (mouse sperm [1]; non-steroidal small molecules, mouse sperm total motility) is on record?
Answer: ~50%

Question: What about the IC50 (mouse sperm [1]; non-steroidal small molecules, mouse sperm motility) of the same molecule?
Answer: 0.048 nM

Question: What about the “NKA Isoform Specificity (IC50 M) NKAα4” value (NKAα4; [4]) of the same molecule?
Answer: nanomolar range

Question: What about the IC50 (NKAα4; α4β1 in Sf9 insect cells, ± SEM of three experiments, read-out: NKA Isoform Specificity (IC50 M) NKAα4) of the same molecule?
Answer: 2.7 nM

Question: And the “Reversibility of effect on sperm motility” value (mouse epididymal sperm)?
Answer: maintained over time; also recorded: not reversible

Question: And the Sperm viability (mouse sperm [2])?
Answer: the same as that of the untreated controls
